Test results published in patent publication US6743925B1, “Nitroimidazole derivative and diagnostic imaging agent containing the same” (Pola Chemical Industries, Inc., priority 1999, dated 2004).

System: cancer-bearing mice (WHT/Ht albino mice), squamous-cell carcinoma and fibrosarcoma
Assay: Radiation intensity of each organ after intravenous injection to cancer-bearing mice
Format: in vivo
Protocol: Compound 4 of Example 4 was intravenously injected to cancer-bearing mice (WHT/Ht albino mice) (3 mice per group). Systemic frozen sections of each mouse were prepared 10, 30, 60, 120, and 150 minutes after intravenous injection, and the radiation intensity of each organ was measured. Squamous-cell carcinoma and fibrosarcoma were employed as cancer sources. When the sections was prepared, blood was collected separately, and the ratio of radiation intensity in each organ to that in blood was obtained.

[1] = 10 min. after intravenous injection
[2] = 30 min. after intravenous injection
[3] = 60 min. after intravenous injection
[4] = 120 min. after intravenous injection
[5] = 150 min. after intravenous injection

O=[N+]([O-])c1nccn1COC(CO)C[18F] (stereo not shown) [Compound 4, 1-[2-fluoro(^18F)-1-(hydroxymethyl)ethoxy]methyl-2-nitroimidazole]
radiation intensity, Blood [1]: 2.222 | radiation intensity, Bone [1]: 1.157 | radiation intensity, Brain [1]: 1.168 | radiation intensity, Fibrosarcoma [1]: 1.584 | radiation intensity, Heart [1]: 1.721 | radiation intensity, Intestine [1]: 1.697 | radiation intensity, Kidney [1]: 7.935 | radiation intensity, Liver [1]: 10.300 | radiation intensity, Lung [1]: 2.151 | radiation intensity, Muscle [1]: 1.576 | radiation intensity, Squamous carcinoma [1]: 2.192 | radiation intensity, Testis [1]: 0.861 | ratio of radiation intensity, Fibrosarcoma/blood [1]: 0.697 | ratio of radiation intensity, Squamous carcinoma/blood [1]: 0.893 | radiation intensity, Blood [2]: 1.068 | radiation intensity, Bone [2]: 0.617 | radiation intensity, Brain [2]: 0.815 | radiation intensity, Fibrosarcoma [2]: 1.319 | radiation intensity, Heart [2]: 0.929 | radiation intensity, Intestine [2]: 0.767 | radiation intensity, Kidney [2]: 5.667 | radiation intensity, Liver [2]: 5.018 | radiation intensity, Lung [2]: 1.347 | radiation intensity, Muscle [2]: 0.742 | radiation intensity, Squamous carcinoma [2]: 1.237 | radiation intensity, Testis [2]: 0.852 | ratio of radiation intensity, Fibrosarcoma/blood [2]: 1.234 | ratio of radiation intensity, Squamous carcinoma/blood [2]: 1.012 | radiation intensity, Blood [3]: 0.379 | radiation intensity, Bone [3]: 0.244 | radiation intensity, Brain [3]: 0.308 | radiation intensity, Fibrosarcoma [3]: 0.619 | radiation intensity, Heart [3]: 0.378 | radiation intensity, Intestine [3]: 0.533 | radiation intensity, Kidney [3]: 1.856 | radiation intensity, Liver [3]: 1.692 | radiation intensity, Lung [3]: 0.596 | radiation intensity, Muscle [3]: 0.314 | radiation intensity, Squamous carcinoma [3]: 0.466 | radiation intensity, Testis [3]: 0.466 | ratio of radiation intensity, Fibrosarcoma/blood [3]: 1.634 | ratio of radiation intensity, Squamous carcinoma/blood [3]: 1.384 | radiation intensity, Blood [4]: 0.117 | radiation intensity, Bone [4]: 0.253 | radiation intensity, Brain [4]: 0.116 | radiation intensity, Fibrosarcoma [4]: 0.421 | radiation intensity, Heart [4]: 0.216 | radiation intensity, Intestine [4]: 0.56 | radiation intensity, Kidney [4]: 0.699 | radiation intensity, Liver [4]: 0.730 | radiation intensity, Lung [4]: 0.353 | radiation intensity, Muscle [4]: 0.139 | radiation intensity, Squamous carcinoma [4]: 0.133 | radiation intensity, Testis [4]: 0.412 | ratio of radiation intensity, Fibrosarcoma/blood [4]: 3.601 | ratio of radiation intensity, Squamous carcinoma/blood [4]: 2.904 | radiation intensity, Blood [5]: 0.096 | radiation intensity, Bone [5]: 0.218 | radiation intensity, Brain [5]: 0.126 | radiation intensity, Fibrosarcoma [5]: 0.351 | radiation intensity, Heart [5]: 0.186 | radiation intensity, Intestine [5]: 0.488 | radiation intensity, Kidney [5]: 0.511 | radiation intensity, Liver [5]: 0.800 | radiation intensity, Lung [5]: 0.331 | radiation intensity, Muscle [5]: 0.159 | radiation intensity, Squamous carcinoma [5]: 0.101 | radiation intensity, Testis [5]: 0.139 | ratio of radiation intensity, Fibrosarcoma/blood [5]: 3.675 | ratio of radiation intensity, Squamous carcinoma/blood [5]: 2.357
